# Reference: US10695347B2, “Pyrimidine derivative and use thereof” (Hubei Bio-Pharmaceutical Industrial Technological Institute …, priority 2015, dated 2020)
# Like-named read-outs stand apart in the source and are kept apart here.
# Columns and labels:
# ALK = ALK (Homo sapiens (Human), UniProt Q9UM73); experiment: Inhibition of ALK kinase activity (Caliper mobility shift); type: biochemical
# Experimental: (§1) Inhibition of Compound I Against ALK Kinase Activity
# (§2) • I. Preparation of 1× kinase buffer and stop buffer
# (§3) 1) 1× Kinase Buffer • 50 mM HEPES. pH 7.5 • 0.0015% Brij-35 • 10 mM MgCl2 • 2 mM DTT • 2) stop buffer • 100 mM HEPES, pH 7.5 • 0.015% Brij-35 • 0.2% Coating Reagent #3 • 50 mM EDTA
# (§4) 2. Prepare a Compound Solution to be Tested • Step 2.1 Dilute the compound to 50× of the final desired highest inhibitor concentration in reaction by 100% DMSO. Transfer 100 μl of this compound dilution to a well in a 96-well plate. For example, if desired highest inhibitor concentration is 1 μM, then prepare 50 μM of compound DMSO solution in this step.
# (§5) Step 2.2 Further dilute said compound dilution by 3-fold in series, thus obtain 10 concentrations.
# (§6) Step 2.3 Add 100 μl of 100% DMSO to two empty wells for no compound control and no enzyme control in the same 96-well plate. Mark the plate as source plate.
# (§7) Step 2.4 Prepare an intermediate plate
# (§8) Transfer 10 μl of each compound from the source plate to a new 96-well plate as the intermediate plate.
# (§9) Add 90 μl of 1× kinase buffer to each well of the intermediate plate. Mix the compounds in the intermediate plate for 10 min on a shaker.
# (§10) Transfer 5 μl of each well from the 96-well intermediate plate to a 384-well plate in duplicate. For example, A1 of the 96-well plate is transferred to A1 and A2 of the 384-well plate. A2 of the 96-well plate is transferred to A3 and A4 of the 384-well plate, and so on.
# (§11) 4.1 Prepare a 2.5× kinase solution
# (§12) Add kinase in 1× kinase base buffer, thus obtain the 2.5× kinase solution.
# (§13) 4.2 Prepare a 2.5× peptide solution
# (§14) 4.3 In each well of the assay plate obtained in step 3, there was 5 μL of the compound in 10% DMSO.
# (§15) 4.4 Transfer the 2.5× enzyme solution to the assay plate.
# (§16) 4.5 Incubate at room temperature for 10 min.
# (§17) 4.6 Transfer the 2.5× peptide solution to the assay plate.
# (§18) 4.7 Kinase reaction and stop
# (§19) Incubate at 28° C. for 20 min.
# (§20) Add 25 μl of stop buffer to stop reaction.
# (§21) Conversion rate of the kinase was read via the Caliper.
# (§22) 6.1 Copy conversion data from Caliper program.
# (§23) 6.2 Convert conversion values to inhibition values with the following formula: Percent inhibition=(max−conversion)/(max−min)*100
# (§24) where “max” stands for DMSO control; and “min” stands for low control.
# (§25) 6.3 Fit the data in XLfit excel add-in version 4.3.1 and obtain IC50 values according to the following formula: Y=Bottom+(Top−Bottom)/[…].
# ALK L1196M = ALK L1196M (Homo sapiens (Human), UniProt Q9UM73, L1196M); experiment: Inhibition of ALK L1196M kinase activity (Caliper mobility shift); type: biochemical
# Experimental: as §1, §2, §3, §4, §5, §6, §7, §8, §9, §10, §11, §12, §13, §14, §15, §16, §17, §18, §19, §20, §21, §22, §23, §24, §25
# Karpas299 cells = experiment: Suppression of Karpas299 cell proliferation (CellTiter-Glo); type: cell-based; conditions: 3 days incubation, read-out: Inhibition activity on Karpas299 cells IC50
# Experimental: (§26) As the amount of ATP can indicate the number of living cells directly, the living cells in culture are able to be quantified by determining the ATP level. In our experiment, we use a living-cell testing kit to quantify the living cells, which utilizes UltraGlow luciferase to generate a stable glow signal in the presence of ATP which is produced by metabolism of living cells, such as respiration. Specifically, a reagent CellTiter-Glo™ was added into cell culture media, and then the luminescent intensity was determined to measure proliferation of cells, as the luminescent intensity is in direct proportion to the ATP level which correlates positively to the number of living cells. The test plate was tested with the Envision (PE).
# Cell media: RPMI-1640 medium, fetal calf serum (FCS), antibiotics (Penicillin-Streptomycin)
# Assay reagent: Cell Viability Assay Kit CellTiter-Glo
# (§27) Others: a 96-well plate, a 384-well plate, DMSO
# (§28) Step 3.1 Culturing test cells
# Karpas 299 cells were plated into a black 384-well plate, with 2500 cells in 45 μl cell suspension per well. The plate was placed in a carbon dioxide incubator overnight.
# (§29) Step 3.2 Preparation of the compounds to be tested
# Each compound to be tested was dissolved in DMSO at 10 mM as the stock solution, which was left in a nitrogen-gas tank for storage.
# After dilution of 10 μL stock solution (10 mM) into 2.5 mM as a starting working solution, 10 concentrations of the working solutions from 5 μM to 0.25 nM were obtained in duplicate by further dilution in 3-fold series with ECHO.
# Step 3.3 Mixing the compound with the test cells
# To each well of a new 96-well plate were added 49 μl medium and 1 μl of the compounds to be tested at individual working concentrations (10 concentrations in total). After oscillation,
# 5 μl of mixture in each well of the 96-well plate was transferred into corresponding wells in the 384-well plate in the step 3.1. The 384-well plate was incubated in the carbon dioxide incubator for 3 days.
# To each well of the 384-well plate was added […] reagent Promega CellTiter-Glo. and incubated at room temperature for 10 minutes to stabilize the luminescence signal. The results were read with the PerkinElmer Envision Multi-mode Plate Reader.
# Ba/F3 EML4-ALK cells = experiment: Suppression of Ba/F3 EML4-ALK cell proliferation (CellTiter-Glo); type: cell-based; conditions: 3 days incubation
# Text: Cell media: RPMI-1640 medium, fetal calf serum (FCS), antibiotics (Penicillin-Streptomycin), IL-3, puromycin
# Cell line: Ba/F3 EML4-ALK
# Assay reagent: Cell Viability Assay Kit Celliter-Glo
# as §27
# as §26, with “in medium” for “in culture”, “a cell viability assay” for “a living-cell testing”, “was assayed by” for “was tested with”
# as §28
# Ba/F3 EML4-ALK cells were planted into a 384-well plate, with almost 300 cells per well. The plate was placed in a carbon dioxide incubator overnight.
# as §29
# 10 concentrations of the working solutions were obtained in duplicate by dilution in 3-fold series with BRAVO.
# Step 3.3 Mixing the compound to be tested with the test cells
# The compounds to be tested at individual working concentrations were transferred into corresponding wells in the 384-well plate in the step 3.1, with 5 μM as the initial working concentration, and then the 384-well plate was incubated in the carbon dioxide incubator for 3 days.
# To each well of the 384-well plate was added the reagent Promega CellTiter-Glo, and incubated at room temperature for 10 minutes to stabilize the luminescence signal. The results were read by the PerkinElmer Envision Multi-mode Plate Reader.
# ALK L1196M, sequence (Q9UM73 19-1620 L1196M): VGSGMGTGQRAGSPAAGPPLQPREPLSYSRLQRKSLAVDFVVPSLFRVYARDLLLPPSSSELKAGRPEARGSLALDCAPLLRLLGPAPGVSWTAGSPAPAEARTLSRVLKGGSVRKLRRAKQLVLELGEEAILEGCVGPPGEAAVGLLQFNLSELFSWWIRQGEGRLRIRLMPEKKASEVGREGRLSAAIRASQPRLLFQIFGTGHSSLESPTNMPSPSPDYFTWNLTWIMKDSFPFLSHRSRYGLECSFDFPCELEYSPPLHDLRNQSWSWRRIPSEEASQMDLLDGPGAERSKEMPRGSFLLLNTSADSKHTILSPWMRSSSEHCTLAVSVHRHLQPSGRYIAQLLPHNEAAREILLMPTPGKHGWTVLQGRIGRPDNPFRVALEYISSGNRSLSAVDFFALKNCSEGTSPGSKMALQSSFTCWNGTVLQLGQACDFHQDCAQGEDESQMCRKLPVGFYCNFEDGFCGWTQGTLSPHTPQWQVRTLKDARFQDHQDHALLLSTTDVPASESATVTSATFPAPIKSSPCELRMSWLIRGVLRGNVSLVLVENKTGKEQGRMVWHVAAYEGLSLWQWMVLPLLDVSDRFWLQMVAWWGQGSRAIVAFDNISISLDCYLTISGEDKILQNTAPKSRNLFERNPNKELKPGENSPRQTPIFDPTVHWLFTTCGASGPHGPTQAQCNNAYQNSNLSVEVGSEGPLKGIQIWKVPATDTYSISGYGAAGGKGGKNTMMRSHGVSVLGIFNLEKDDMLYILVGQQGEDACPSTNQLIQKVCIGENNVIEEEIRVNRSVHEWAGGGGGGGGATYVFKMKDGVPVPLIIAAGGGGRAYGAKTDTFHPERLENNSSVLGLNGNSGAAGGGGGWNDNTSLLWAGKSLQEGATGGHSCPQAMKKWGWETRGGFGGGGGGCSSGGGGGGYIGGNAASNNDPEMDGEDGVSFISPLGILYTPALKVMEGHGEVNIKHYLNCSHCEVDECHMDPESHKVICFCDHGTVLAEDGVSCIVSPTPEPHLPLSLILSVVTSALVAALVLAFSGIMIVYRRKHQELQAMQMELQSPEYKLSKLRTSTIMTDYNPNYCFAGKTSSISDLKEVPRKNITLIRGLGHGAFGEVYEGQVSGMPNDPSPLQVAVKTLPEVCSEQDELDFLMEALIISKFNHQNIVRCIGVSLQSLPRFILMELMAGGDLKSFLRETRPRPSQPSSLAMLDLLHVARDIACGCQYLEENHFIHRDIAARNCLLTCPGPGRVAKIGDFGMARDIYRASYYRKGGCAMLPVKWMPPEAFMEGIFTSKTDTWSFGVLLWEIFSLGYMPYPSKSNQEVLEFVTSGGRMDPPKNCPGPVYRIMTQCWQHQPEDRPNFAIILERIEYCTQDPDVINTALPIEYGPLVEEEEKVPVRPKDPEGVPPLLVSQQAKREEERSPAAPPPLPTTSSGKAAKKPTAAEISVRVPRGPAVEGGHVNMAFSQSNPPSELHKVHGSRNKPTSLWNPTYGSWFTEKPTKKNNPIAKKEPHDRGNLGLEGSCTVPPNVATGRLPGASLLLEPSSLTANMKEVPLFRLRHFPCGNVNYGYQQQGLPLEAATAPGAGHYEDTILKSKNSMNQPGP
# ALK, sequence (Q9UM73 19-1620): as the sequence (Q9UM73 19-1620 L1196M) above, with M1178L counted along it
SMILES,IC50 (ALK),IC50 (ALK L1196M),"IC50 (Karpas299 cells; Homo sapiens, KARPAS-299, 72 h)","IC50 (Ba/F3 EML4-ALK cells; Ba/F3 EML4-ALK, 72 h)",IC50 (Karpas299 cells),IC50 (Ba/F3 EML4-ALK cells)
"CC(C)Oc1cc(N2CCC(N(C)C)CC2)ccc1Nc1ncc(Cl)c(Nc2ccsc2S(=O)(=O)C(C)C)n1 [Compound I-82, 5-chloro-N^2-(4-(4-(dimethylamino)piperidin-1-yl)-2-isopropoxyphenyl)-N^4-(2-(isopropylsulfonyl)thiophen-3-yl) pyrimidine-2,4-diamine]",< 1 nM,< 1 nM,< 50 nM,20 to 100 nM,–,–
"COc1cc(C2=CCN(C)CC2)ccc1Nc1ncc(Cl)c(Nc2cccnc2S(=O)(=O)C(C)C)n1 [Compound I-84, 5-chloro-N^4-(2-(isopropylsulfonyl)pyridin-3-yl)-N^2-(2-methoxy-4-(1-methyl-1,2,3,6-tetrahydropyridin-4-yl)phenyl) pyrimidine-2,4-diamine]",1 to 10 nM,1 to 10 nM,< 50 nM,20 to 100 nM,–,–
"COc1cc(C2=CCN(C(C)C)CC2)ccc1Nc1ncc(Cl)c(Nc2cccnc2S(=O)(=O)C(C)C)n1 [Compound I-85, 5-chloro-N^2-(4-(1-isopropyl-1,2,3,6-tetrahydropyridin-4-yl)-2-methoxyphenyl)-N^4-(2-(isopropylsulfonyl)pyridin-3-yl) pyrimidine-2,4-diamine]",1 to 10 nM,1 to 10 nM,< 50 nM,20 to 100 nM,–,–
"COc1cc(C2=CCN(C(C)C)CC2)ccc1Nc1ncc(Cl)c(Nc2ccsc2S(=O)(=O)C(C)C)n1 [Compound I-86, 5-chloro-N^2-(4-(1-isopropyl-1,2,3,6-tetrahydropyridin-4-yl)-2-methoxyphenyl)-N^4-(2-(isopropylsulfonyl)thiophen-3-yl) pyrimidine-2,4-diamine]",< 1 nM,< 1 nM,< 50 nM,< 20 nM,–,–
COc1cc(N2CCN(C(C)C)CC2)c(C)cc1Nc1ncc(Cl)c(Nc2cccnc2S(=O)(=O)C(C)C)n1 [Compound I-88],1 to 10 nM,1 to 10 nM,50 to 100 nM,20 to 100 nM,–,–
CC(C)Oc1cc(N2CCC(N(C)C)CC2)ccc1Nc1ncc(Cl)c(Nc2cccnc2S(=O)(=O)C(C)C)n1 [Compound I-91],1 to 10 nM,1 to 10 nM,50 to 100 nM,< 20 nM,–,–
CCOc1cc(N2CCC(N(C)C)CC2)ccc1Nc1ncc(Cl)c(Nc2cccnc2S(=O)(=O)C(C)C)n1 [Compound I-92],1 to 10 nM,1 to 10 nM,50 to 100 nM,< 20 nM,–,–
"COc1cc(N2CCC(N(C)C)CC2)c(C)cc1Nc1ncc(Cl)c(Nc2cccnc2S(=O)(=O)C(C)C)n1 [Compound I-98, 5-chloro-N^2-(4-(4-(dimethylamino)piperidin-1-yl)-2-methoxy-5-methylphenyl)-N^4-(2-(isopropylsulfonyl)pyridin-3-yl) pyrimidine-2,4-diamine]",< 1 nM,< 1 nM,< 50 nM,20 to 100 nM,–,–
"CC(C)S(=O)(=O)c1ncccc1Nc1nc(Nc2ccc(N3CCC(N(C)C)CC3)cc2OC(F)F)ncc1Cl [Compound I-100, 5-chloro-N^2-(2-(difluoromethoxy)-4-(4-(dimethylamino)piperidin-1-yl)phenyl)-N^4-(2-(isopropylsulfonyl)pyridin-3-yl) pyrimidine-2,4-diamine]",1 to 10 nM,1 to 10 nM,< 50 nM,20 to 100 nM,–,–
"Cc1cc(Nc2ncc(Cl)c(Nc3ccccc3S(=O)(=O)C(C)C)n2)c(OC(F)F)cc1N1CCC(N(C)C)CC1 [Compound I-102, 5-chloro-N^2-(2-(difluoromethoxy)-4-(4-(dimethylamino)piperidin-1-yl)-5-methylphenyl)-N^4-(2-(isopropylsulfonyl)phenyl) pyrimidine-2,4-diamine]",1 to 10 nM,< 1 nM,50 to 100 nM,< 20 nM,–,–
COc1cc(CN2CCC(N(C)C)CC2)ccc1Nc1ncc(Cl)c(Nc2ccccc2S(=O)(=O)C(C)C)n1 [Compound I-109],1 to 10 nM,1 to 10 nM,50 to 100 nM,< 20 nM,–,–
COc1cc(CN2CCC(N(C)C)CC2)ccc1Nc1ncc(Cl)c(Nc2ccccc2S(=O)(=O)C(C)C)n1 [Compound I-110],1 to 10 nM,1 to 10 nM,–,–,< 50 nM,< 20 nM
"COc1cc(N2CCC(N(C)C)CC2)ccc1Nc1ncc(OC(F)F)c(Nc2ccccc2S(=O)(=O)C(C)C)n1 [Compound I-111, 5-(difluoromethoxy)-N^2-(4-(4-(dimethylamino)piperidin-1-yl)-2-methoxyphenyl)-N^4-(2-(isopropylsulfonyl)phenyl) pyrimidine-2,4-diamine]",< 1 nM,< 1 nM,< 50 nM,< 20 nM,–,–
"COc1cc(N2CCC(N(C)C)CC2)c(C)cc1Nc1ncc(OC(F)F)c(Nc2ccccc2S(=O)(=O)C(C)C)n1 [Compound I-112, 5-(difluoromethoxy)-N^2-(4-(4-(dimethylamino)piperidin-1-yl)-2-methoxy-5-methylphenyl)-N^4-(2-(isopropylsulfonyl)phenyl) pyrimidine-2,4-diamine]",< 1 nM,< 1 nM,< 50 nM,< 20 nM,–,–
"CC(C)Oc1cc(N2CCC(N(C)C)CC2)ccc1Nc1ncc(OC(F)F)c(Nc2ccccc2S(=O)(=O)C(C)C)n1 [Compound I-113, 5-(difluoromethoxy)-N^2-(4-(4-(dimethylamino)piperidin-1-yl)-2-isopropoxyphenyl)-N^4-(2-(isopropylsulfonyl)phenyl) pyrimidine-2,4-diamine]",< 1 nM,< 1 nM,< 50 nM,< 20 nM,–,–
